Measured values: patent US10166302B2, “Labeling composition for cancer lesion” (NATIONAL CANCER CENTER, priority 2012, dated 2019)

How the values were obtained:
[1] = Signal intensity of near-infrared fluorescence of ICG-MAA complexes at various ICG and MAA mixing ratios; type: physicochemical; details: for Signal intensity of near-infrared fluorescence: MAA 0 mg/ml
[2] = 18 breast cancer patients (T. Kitai, et al., Breast Cancer, 12:211-215, 2005); cited from earlier work

- Signal intensity of near-infrared fluorescence ([1]; ICG 9.0 μM): 289
- Signal intensity of near-infrared fluorescence ([1]; ICG 12.9 μM): 363
- Signal intensity of near-infrared fluorescence ([1]; ICG 25.8 μM): 466
- Signal intensity of near-infrared fluorescence ([1]; ICG 38.7 μM): 425
- Signal intensity of near-infrared fluorescence ([1]; ICG 51.6 μM): 399
- Signal intensity of near-infrared fluorescence ([1]; ICG 64.5 μM): 374
- Signal intensity of near-infrared fluorescence ([1]; ICG 77.4 μM): 332
- Signal intensity of near-infrared fluorescence ([1]; ICG 103 μM): 289
- Signal intensity of near-infrared fluorescence ([1]; ICG 258 μM): 139
- Signal intensity of near-infrared fluorescence ([1]; ICG 516 μM): 71
- Signal intensity of near-infrared fluorescence ([1]; ICG 774 μM): 39
- Signal intensity of near-infrared fluorescence ([1]; ICG 1032 μM): 30
- ICG concentration showing the highest value of signal intensity of near-infrared fluorescence ([1]; MAA was not treated): 25.8 µM
Compound: CC1(C)C(/C=C/C=C/C=C/C=C2\N(CCCCS(=O)(=O)O)c3ccc4ccccc4c3C2(C)C)=[N+](CCCCS(=O)(=O)[O-])c2ccc3ccccc3c21 [ICG, indocyanine green]
- Clinical safety [2]: safely used
